Data: PMC10892019, “Molecular Characterization of Plant Volatile Compound Interactions with Cnaphalocrocis medinalis Odorant-Binding Proteins” (Plants, 2024)
Like-named read-outs stand apart in the source and are kept apart here. One block for each compound: values may come before it.

Key:
CmedGOBP1 = CmedGOBP1 (Cnaphalocrocis medinalis, UniProt H9XFD0); assay: Fluorescence competitive binding assay (1-NPN) with CmedGOBP1
Experimental: (§1) The method for fluorescence competition binding was the same as that described by Zeng et al. (2018). The fluorescent probe N-phenyl-1-naphthylamine (1-NPN) (Sangon Biotech, Shanghai, China) and phenylacetaldehyde, benzyl acetate, 1-heptanol, and hexanal (Aladdin, Shanghai, China) were diluted to 100 mM stocks in chromatographic-grade methanol and stored at −20 °C. Working solutions of 1 mM 1-NPN and each odorant were made up in methanol. Each CmedOBP solution was diluted in 1 mM Tris-HCl buffer to a final concentration of 2 μM.
(§2) The RF5301PC fluorescence spectrophotometer (Shimadzu, Japan) was operated at an excitation wavelength of 337 nm and an emission wavelength of 405 nm (with excitation and emission slits of 5 nm and 10 nm, respectively). For each protein solution, 2 mL of diluted protein was added to the quartz cuvette, then 4 μL aliquots of 1-NPN solution were added at 2 min intervals to bring the final concentration of the probe to 2 μM. After the fluorescence intensity was stable, the maximum fluorescence value was recorded. The 1 mM volatile samples dissolved in methanol were then added to a final concentration of 20 μM. After 2 min, when the fluorescence value no longer fluctuated, the maximum fluorescence value was recorded. Each odor sample was tested in three technical replicates.
(§3) The binding ability of each protein to each odorant was determined by plotting the fluorescence intensity against the ligand concentration. Trend lines were linearized with the Scatchard method, then used to calculate the half-maximal inhibition concentration (IC50) of the ligand. The competition constant was calculated from the IC50 value as follows: Ki = [IC50]/(1 + [1-NPN]/K1-NPN) where 1-NPN is the concentration of free 1-NPN, and K1-NPN is the dissociation constant of the CmedOBP/[1-NPN] complex. The dissociation constant (Ki) was inversely correlated with the binding force between the protein and the odorant. At Ki > 50 μmol/L, the protein was considered to have no binding force with the volatile; at 20 μmol/L < Ki < 50 μmol/L, the protein was considered to have a weak binding force with the volatile; and at 0 μmol/L < Ki < 20 μmol/L, the protein was considered to have a strong binding force with the analyzed volatile.

CmedGOBP2 = CmedGOBP2 (Cnaphalocrocis medinalis, UniProt H9XFD1); assay: Fluorescence competitive binding assay (1-NPN) with CmedGOBP2
Experimental: as §1, §2, §3

CmedPBP2 = CmedPBP2 (Cnaphalocrocis medinalis, UniProt M4YHW5); assay: Fluorescence competitive binding assay (1-NPN) with CmedPBP2
Experimental: as §1, §2, §3

CmedOBP1 = CmedOBP1 (Cnaphalocrocis medinalis, UniProt H9XFD2); assay: Fluorescence competitive binding assay (1-NPN) with CmedOBP1
Experimental: as §1, §2, §3

CmedOBP6 = CmedOBP6 (Cnaphalocrocis medinalis, UniProt A0A0U3C2E7); assay: Fluorescence competitive binding assay (1-NPN) with CmedOBP6
Experimental: as §1, §2, §3

CmedOBP15 = CmedOBP15 (Cnaphalocrocis medinalis, UniProt A0A0U3C6L3); assay: Fluorescence competitive binding assay (1-NPN) with CmedOBP15
Experimental: as §1, §2, §3

CmedOBP26 = CmedOBP26 (Cnaphalocrocis medinalis, UniProt A0A1P8SKA7); assay: Fluorescence competitive binding assay (1-NPN) with CmedOBP26
Experimental: as §1, §2, §3

SaveOBP9 = molecular target: SaveOBP9; set-up: method as in PMID 33172024; conditions: SaveOBP9, strong binding force; cited from earlier work
[1] = CmedGOBP1 2 μM, 1-NPN probe 2 μM, calculated from IC50, read-out: Ki
[2] = CmedGOBP1 2 μM, 1-NPN probe 2 μM, read-out: IC50
[3] = CmedGOBP2 2 μM, 1-NPN probe 2 μM, calculated from IC50, read-out: Ki
[4] = CmedGOBP2 2 μM, 1-NPN probe 2 μM, read-out: IC50
[5] = CmedPBP2 2 μM, 1-NPN probe 2 μM, calculated from IC50, read-out: Ki
[6] = CmedPBP2 2 μM, 1-NPN probe 2 μM, read-out: IC50
[7] = CmedOBP1 2 μM, 1-NPN probe 2 μM, calculated from IC50, read-out: Ki
[8] = CmedOBP1 2 μM, 1-NPN probe 2 μM, read-out: IC50
[9] = CmedOBP6 2 μM, 1-NPN probe 2 μM, calculated from IC50, read-out: Ki
[10] = CmedOBP6 2 μM, 1-NPN probe 2 μM, read-out: IC50
[11] = CmedOBP15 2 μM, 1-NPN probe 2 μM, calculated from IC50, read-out: Ki
[12] = CmedOBP15 2 μM, 1-NPN probe 2 μM, read-out: IC50
[13] = CmedOBP26 2 μM, 1-NPN probe 2 μM, calculated from IC50, read-out: Ki
[14] = CmedOBP26 2 μM, 1-NPN probe 2 μM, read-out: IC50
[15] = Ki, CmedOBP1 2 μM, 1-NPN probe 2 μM, calculated from IC50
[16] = Ki, CmedOBP15 2 μM, 1-NPN probe 2 μM, calculated from IC50

Chain of CmedGOBP2 (H9XFD1 entry or part of it): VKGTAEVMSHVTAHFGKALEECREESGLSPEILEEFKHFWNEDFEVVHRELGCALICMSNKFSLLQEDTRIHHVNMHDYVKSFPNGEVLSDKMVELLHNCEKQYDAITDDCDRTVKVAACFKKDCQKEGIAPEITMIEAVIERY
Chain of CmedPBP2 (M4YHW5 entry or part of it): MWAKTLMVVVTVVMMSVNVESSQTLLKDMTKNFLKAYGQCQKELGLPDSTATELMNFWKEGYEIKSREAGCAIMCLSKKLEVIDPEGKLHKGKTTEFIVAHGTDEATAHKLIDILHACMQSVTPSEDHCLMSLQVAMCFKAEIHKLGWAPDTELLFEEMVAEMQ
Chain of CmedOBP6 (A0A0U3C2E7 entry or part of it): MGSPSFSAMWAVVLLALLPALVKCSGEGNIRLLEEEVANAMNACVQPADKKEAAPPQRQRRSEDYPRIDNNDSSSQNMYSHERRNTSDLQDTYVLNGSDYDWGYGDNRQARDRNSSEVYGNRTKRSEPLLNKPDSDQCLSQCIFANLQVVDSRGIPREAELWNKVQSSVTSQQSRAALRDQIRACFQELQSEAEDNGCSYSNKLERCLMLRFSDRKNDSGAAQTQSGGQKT
Chain of CmedOBP1 (H9XFD2 entry or part of it): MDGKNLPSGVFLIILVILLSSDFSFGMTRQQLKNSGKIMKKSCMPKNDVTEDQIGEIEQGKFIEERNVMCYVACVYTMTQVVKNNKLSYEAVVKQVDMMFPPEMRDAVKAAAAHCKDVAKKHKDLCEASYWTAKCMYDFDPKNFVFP
Chain of CmedGOBP1 (H9XFD0 entry or part of it): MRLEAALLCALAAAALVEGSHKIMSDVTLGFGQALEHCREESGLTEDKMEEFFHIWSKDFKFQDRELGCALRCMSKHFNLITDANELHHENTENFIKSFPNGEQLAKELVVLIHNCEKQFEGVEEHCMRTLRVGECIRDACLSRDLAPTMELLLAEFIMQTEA
Chain of CmedOBP15 (A0A0U3C6L3 entry or part of it): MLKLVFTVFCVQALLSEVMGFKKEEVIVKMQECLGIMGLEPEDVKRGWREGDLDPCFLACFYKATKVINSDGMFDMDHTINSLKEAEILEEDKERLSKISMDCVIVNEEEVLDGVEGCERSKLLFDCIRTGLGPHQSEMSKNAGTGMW
Chain of CmedOBP26 (A0A1P8SKA7 entry or part of it): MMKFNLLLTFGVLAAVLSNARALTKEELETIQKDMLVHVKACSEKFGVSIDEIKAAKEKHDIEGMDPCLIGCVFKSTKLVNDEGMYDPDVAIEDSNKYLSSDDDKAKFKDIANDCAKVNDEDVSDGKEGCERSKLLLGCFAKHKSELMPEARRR

- Ki (CmedGOBP1; [1]): > 50 µM
- IC50 (CmedGOBP1; [2]): 223 µM
- Ki (CmedGOBP2; [3]): > 50 µM
- IC50 (CmedGOBP2; [4]): 454 µM
- Ki (CmedPBP2; [5]): > 50 µM
- IC50 (CmedPBP2; [6]): 235 µM
- Ki (CmedOBP1; [7]): 31.5 µM
- IC50 (CmedOBP1; [8]): 179 µM
- Ki (CmedOBP6; [9]): > 50 µM
- IC50 (CmedOBP6; [10]): 558 µM
- Ki (CmedOBP15; [11]): 13.6 µM
- IC50 (CmedOBP15; [12]): 34.4 µM
- Ki (CmedOBP15; CmedOBP15, read-out: Ki value): < 20 µM
- Ki (CmedOBP26; [13]): > 50 µM
- IC50 (CmedOBP26; [14]): 96.1 µM
Structure (SMILES): CC(=O)OCc1ccccc1 [Benzyl Acetate, benzyl acetate]

Structure (SMILES): CCCCCCCCCCCCCC [tetradecane]
- Ki (SaveOBP9): < 10 µM

Structure (SMILES): CCCCCCCCCCCCCCCC [hexadecane]
- Ki (SaveOBP9): < 10 µM

- Ki (CmedGOBP1; [1]): > 50 µM
- IC50 (CmedGOBP1; [2]): 219 µM
- Ki (CmedGOBP2; [3]): > 50 µM
- IC50 (CmedGOBP2; [4]): 99.7 µM
- Ki (CmedPBP2; [5]): > 50 µM
- IC50 (CmedPBP2; [6]): 224 µM
- Ki (CmedOBP1; [7]): 12 µM
- IC50 (CmedOBP1; [8]): 68.1 µM
- Ki (CmedOBP1; CmedOBP1, read-out: Ki value): < 20 µM
- Ki (CmedOBP6; [9]): > 50 µM
- IC50 (CmedOBP6; [10]): 624 µM
- Ki (CmedOBP15; [11]): > 50 µM
- IC50 (CmedOBP15; [12]): 290 µM
- Ki (CmedOBP26; [13]): 31.9 µM
- IC50 (CmedOBP26; [14]): 52.3 µM
- Ki (CmedOBP26; CmedOBP26, read-out: Ki value): 20 to 50 µM
Structure (SMILES): CCCCCCCO [1-Heptanol, 1-heptanol]

Structure (SMILES): CCCCCCCC=O [octanal]
- Ki (SaveOBP9): < 10 µM

Structure (SMILES): CCCCCC=O [Hexanal, hexanal]
- IC50 (CmedGOBP1): 249 µM
- Ki (CmedGOBP1): > 50 µM
- IC50 (CmedGOBP2): 622 µM
- Ki (CmedGOBP2): > 50 µM
- IC50 (CmedPBP2): 155 µM
- Ki (CmedPBP2): > 50 µM
- IC50 (CmedOBP1): 99.2 µM
- Ki (CmedOBP1; Ki value, CmedOBP1): < 20 µM
- Ki (CmedOBP1; [15]): 17.5 µM
- IC50 (CmedOBP6): 383 µM
- Ki (CmedOBP6): > 50 µM
- IC50 (CmedOBP15): 441 µM
- Ki (CmedOBP15; [16]): > 50 µM
- IC50 (CmedOBP26): 200 µM
- Ki (CmedOBP26): > 50 µM

Structure (SMILES): O=CCc1ccccc1 [Phenylacetaldehyde, phenylacetaldehyde]
- IC50 (CmedGOBP1): 162 µM
- Ki (CmedGOBP1): > 50 µM
- IC50 (CmedGOBP2): 123 µM
- Ki (CmedGOBP2): > 50 µM
- IC50 (CmedPBP2): 85.8 µM
- Ki (CmedPBP2): > 50 µM
- IC50 (CmedOBP1): 77.5 µM
- Ki (CmedOBP1; Ki value, CmedOBP1): < 20 µM
- Ki (CmedOBP1; [15]): 13.7 µM
- IC50 (CmedOBP6): 357 µM
- Ki (CmedOBP6): > 50 µM
- IC50 (CmedOBP15): 44.3 µM
- Ki (CmedOBP15; Ki value, CmedOBP15): < 20 µM
- Ki (CmedOBP15; [16]): 17.5 µM
- IC50 (CmedOBP26): 458 µM
- Ki (CmedOBP26): > 50 µM

Structure (SMILES): CCCCCCCCCC=O [decanal]
- Ki (SaveOBP9): < 10 µM
